These results are taken from US8227240B2, “Systems for screening pharmaceutical chemicals” (The Washington University, priority 2001, dated 2012).

What all share (assay type): cell-based
Assay [1] deals with actin cytoskeletons in mono-layer cell cultures. In words: Confocal microscopy of actin cytoskeletons stained with Rhodamine phalloidin. Conditions: CD 2 nM.
Assay [2] has as its system reconstituted tissue membrane (fibroblast non-muscle myosin / actin cytoskeleton). The assay is described as follows: Tissue indentation method in 96-well plate: peak force of reconstituted tissue membrane. The method, then:
A triangular frame made of stainless steel wire 1 mm in diameter was employed as a scaffold on which the reconstituted tissue formed. The wells are slightly tapered toward the bottom and the frame is securely positioned 1 mm above the bottom of the well (FIG. 11a). The non-polymerized solution of collagen containing cells and appropriate cell culture media as described above was poured into the wells filling the wells to a level 3 mm above the bottom (FIG. 11b). The 96-well plate was incubated at 37° C. with 5% CO2. During the incubation, cells compressed collagen matrices by squeezing liquid out from the porous collagen matrix. Without the wire frame, the reconstituted tissue contracted into a small sphere floating in the tissue culture medium. It was discovered that by utilizing different shapes of wire frames the collagen matrix was compressed into shapes corresponding to shapes of the frames. Other wire frame shapes, such as one shown in FIG. 11b, produced tissue strips with different widths. A porous support material such as a Velcro fastener was not required to facilitate tissue adhesion even to the non-porous stainless steel surfaces of a wire. The collagen was compressed to a greater extent at the outer portion of the membrane or strip. Therefore, this outer portion of the membrane can withstand stress produced by the cells and prevented it from ripping the membrane off the wire frame.
To assess the response of the tissue model samples to test agents, the resistance of the tissue samples to stretch is measured by a probe coupled to a force transducer. The stiffness of the tissue is related to the force required to move the probe by a specified amount once the probe contacts the tissue. […]
The stage is raised until the probe tip touches the membrane or strip of reconstituted tissue. Contact of the tip with the sample is detected by a sudden increase in the force registered by the isometric force transducer. […] During this trajectory the tip comes in contact with the tissue specimen and stretches it as the force is continually recorded by a data recorder. […]

Another assay relates to ring tissue model. In words: Contractile force developed by ring sample during tissue development (matrix remodeling and compression). The settings on record: Cytochalasin D 2 μM. The method, then:
The contractile force developed by the ring sample during matrix remodeling and compression can be measured by connecting the ring to the force measuring apparatus as described above within about 1-2 hours after collagen gelation. The cells begin to exert a force on the matrix after this time. Then the increase of force during tissue development (remodeling and compression) is observed over time.
Maximum force is typically reached within 15 to 20 hours. This process was also disrupted by several inhibitors as illustrated in FIGS. 18(b)-(d).

With `C=C1[C@@H](C)[C@H]2[C@H](Cc3ccccc3)NC(=O)[C@]23[C@H](OC(C)=O)/C=C/[C@@](C)(O)C(=O)[C@@H](C)C/C=C/[C@H]3[C@@H]1O` [CD, cytochalasin D], in assay [1], the “effect on actin cytoskeletons by confocal microscopy” value is recorded as “no effect was observed”. Besides, the “decrease of peak force from its initial level” value in assay [2] (40 nM CD, nearly 15 min after addition, after 20% FBS) is listed as “about 40%”. For the same compound, the peak force entry in assay [2] (2 μM CD, 20 min after addition) is given as “further reduction”. Also, the “reduction of the height of the force peaks” value in assay [2] (96-well plate, after 10% FBS) came out at 60%. Moreover, the “development of force during ring tissue development” value in the assay on ring tissue model is given as “completely abolished”.
